Results on 5 molecules are retold here after US20260265329A1, “POLYPEPTIDE AND DERIVATIVE THEREOF, COMPOSITION, AND USE THEREOF” (HANGZHOU SCIWIND BIOSCIENCES CO., LTD., priority 2023, published 2026).

Starred links: 1 amine or outer side, 2 acyl side, 3 side chain; linkers in the order of their positions; H or OH if unused. Non-standard residues stand in square brackets, D forms with d. Residues, ends and D or L forms follow the SMILES beside them. *: point of attachment. C20 diacid = O=C(O)CCCCCCCCCCCCCCCCCCC(=O)*; γGlu = O=C(O)[C@H](CCC(=O)[*:2])N[*:1]; βAsp = O=C(O)[C@H](CC(=O)[*:2])N[*:1]; Hyp = O=C(O)[C@@H]1C[C@@H](O)CN1

Series [1] can be described thus: Heat accelerated stability assay, 40° C., detection on 7 d and 28 d. Type of series: physicochemical. The settings on record: for Purity from the reversed phase chromatography-214 nm, 0 d / Purity from the reversed phase chromatography-214 nm, 7 d / Purity from the reversed phase chromatography-214 nm, 28 d: 1 mg/mL, pH about 7.4, 40° C.; for Change (7 d − 0 d): purity on 7 d − purity on 0 d; for Change (7 d − 0 d) / Change (28 d − 0 d): 40° C., pH about 7.4; for Change (28 d − 0 d): purity on 28 d − purity on 0 d. The method, then:
The derivatives (1 mg/mL) were mixed with sodium dihydrogen phosphate (1.42 mg/mL) and dissolved in ultrapure water. After adjusting pH to about 7.4 with hydrochloric acid/sodium hydroxide, the solution was filtered into a sterilized vial in a clean bench using a 0.22 μm sterile filter. The vial was then capped and placed into the stability test chamber at 40° C. Detections were made on Days 7 (7d) and 28 (28d), and during the assay, changes in the characteristics and properties of the polypeptides were observed and recorded. The sample was then centrifuged for 3 min at 10000 rpm at 4° C., and the supernatant was transferred to a liquid phase sample vial for detecting the concentration and purity of the polypeptides using liquid phase chromatography described as below.
Conditions of the reversed phase chromatography Flow rate: 1.0 mL/min; Autosampler temperature: 15° C.; Column temperature: 25° C.; Detection wavelength: 214 nm; Mobile phase A: 100% H2O+0.05% TFA; Mobile phase B: 100% ACN; and Gradient of elution listed in Table 4: […]

In another series the target is T1, human amylin receptors (Homo sapiens, UniProt O60896+P30988).
T1 construct: host or cells: CHO-K1/Ga15/AMY3 cells, further stably transfected with a CRE-luciferase plasmid
T1 sequence (P30988 25-474): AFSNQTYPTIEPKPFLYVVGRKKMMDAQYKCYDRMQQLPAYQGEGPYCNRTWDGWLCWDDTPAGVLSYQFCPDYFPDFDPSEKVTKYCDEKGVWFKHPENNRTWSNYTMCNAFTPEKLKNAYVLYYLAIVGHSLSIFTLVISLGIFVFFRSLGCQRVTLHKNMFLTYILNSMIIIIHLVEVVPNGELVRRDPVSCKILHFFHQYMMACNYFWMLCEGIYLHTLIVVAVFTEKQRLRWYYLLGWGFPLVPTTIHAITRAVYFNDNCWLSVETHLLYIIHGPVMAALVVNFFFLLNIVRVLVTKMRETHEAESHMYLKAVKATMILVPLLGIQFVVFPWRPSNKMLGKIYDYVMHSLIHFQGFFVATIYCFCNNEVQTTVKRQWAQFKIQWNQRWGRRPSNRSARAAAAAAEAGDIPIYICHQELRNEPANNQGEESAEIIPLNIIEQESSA
T1 sequence (O60896 24-148 partner): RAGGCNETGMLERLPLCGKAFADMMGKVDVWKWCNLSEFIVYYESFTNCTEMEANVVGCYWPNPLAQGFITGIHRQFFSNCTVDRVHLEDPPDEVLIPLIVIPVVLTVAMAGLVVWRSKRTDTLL
The series can be described thus: Luciferase assay in stably transfected amylin receptor/CRE-luc CHO cell line. The settings on record: for Relative activity: EC50 ratio of Cagrilintide to the compound, Cagrilintide 100%; for EC50: amylin receptor/CRE-luc CHO cells, 24 hours incubation, luminescence. Type of series: cell-based.

Series [2] has as its target T2, human amylin receptor on CHO-K1/Ga15/AMY3 cells (amylin receptor/CRE-luc cell line) (human) (UniProt P30988).
T2 sequence (looked up) 1: T1 sequence (P30988 25-474)
T2 sequence (looked up) 2: T1 sequence (O60896 24-148 partner)
The series can be described thus: cell-based or functional assay.

With `CC[C@H](C)[C@H](NC(=O)[C@@H]1CCCN1C(=O)[C@H](CCCCN)NC(=O)[C@H](CC(C)C)NC(=O)[C@H](CC(N)=O)NC(=O)[C@H](CC(N)=O)NC(=O)[C@H](CO)NC(=O)[C@H](CO)NC(=O)[C@H](Cc1c[nH]cn1)NC(=O)[C@H](CCCNC(=N)N)NC(=O)[C@H](CC(C)C)NC(=O)[C@H](Cc1ccccc1)NC(=O)[C@H](CC(=O)O)NC(=O)[C@H](C)NC(=O)[C@H](CC(C)C)NC(=O)[C@H](CCCNC(=N)N)NC(=O)[C@H](CCC(N)=O)NC(=O)[C@@H](NC(=O)[C@@H](NC(=O)[C@H](C)NC(=O)[C@@H](NC(=O)[C@H](CO)NC(=O)[C@H](CC(C)C)NC(=O)[C@H](CCC(N)=O)NC(=O)[C@H](CO)NC(=O)[C@H](C)NC(=O)CC[C@H](NC(=O)CCCCCCCCCCCCCCCCCCC(=O)O)C(=O)O)[C@@H](C)O)C(C)C)[C@@H](C)O)C(=O)N[C@@H](CC(C)C)C(=O)N1CCC[C@H]1C(=O)N1CCC[C@H]1C(=O)N[C@H](C(=O)N[C@@H](CC(N)=O)C(=O)N[C@H](C(=O)NCC(=O)N[C@@H](CO)C(=O)N[C@@H](CC(N)=O)C(=O)N[C@H](C(=O)N1C[C@H](O)C[C@H]1C(N)=O)[C@@H](C)O)C(C)C)[C@@H](C)O` [M7] ({C20 diacid-γGlu}-ASQLSTAVTQRLADFLRHSSNNLKPILPPTNVGSNT[Hyp]-NH2), in series [1], the “Purity from the reversed phase chromatography-214 nm, 0 d” value (“Purity … 0 d” for short) amounted to 93; the “Purity from the reversed phase chromatography-214 nm, 7 d” value (shortened to “Purity … 7 d”) came out at 91.39; the “Purity from the reversed phase chromatography-214 nm, 28 d” value (“Purity … 28 d” below) amounted to 91.53; the “Change (7 d − 0 d)” value was −1.61. Besides, the “Change (28 d − 0 d)” value in series [1] was −1.47. Also, on human amylin receptors, the Relative activity is 39% and a half-maximal effect (EC50) was put at 0.066 nM.

On to `CC[C@H](C)[C@H](NC(=O)[C@H](CC(=O)O)NC(=O)[C@H](CCCNC(=N)N)NC(=O)[C@H](CC(=O)O)NC(=O)[C@H](CCCNC(=N)N)NC(=O)[C@H](CC(=O)O)NC(=O)[C@@H](NC(=O)[C@H](Cc1ccccc1)NC(=O)[C@H](Cc1c[nH]cn1)NC(=O)[C@H](CCCNC(=N)N)NC(=O)[C@H](CC(C)C)NC(=O)[C@H](Cc1ccccc1)NC(=O)[C@H](CC(=O)O)NC(=O)[C@H](C)NC(=O)[C@H](CC(C)C)NC(=O)[C@H](CCCNC(=N)N)NC(=O)[C@H](CCC(N)=O)NC(=O)[C@@H](NC(=O)[C@@H](NC(=O)[C@H](C)NC(=O)[C@@H](NC(=O)[C@H](CO)NC(=O)[C@H](CC(C)C)NC(=O)[C@H](CCC(N)=O)NC(=O)[C@H](CO)NC(=O)[C@H](C)NC(=O)CC[C@H](NC(=O)CCCCCCCCCCCCCCCCCCC(=O)O)C(=O)O)[C@@H](C)O)C(C)C)[C@@H](C)O)[C@@H](C)O)C(=O)N[C@@H](CC(C)C)C(=O)N1CCC[C@H]1C(=O)N1CCC[C@H]1C(=O)N[C@H](C(=O)N[C@@H](CC(N)=O)C(=O)N[C@H](C(=O)NCC(=O)N[C@@H](CO)C(=O)N[C@@H](CC(N)=O)C(=O)N[C@H](C(=O)N1CCC[C@H]1C(N)=O)[C@@H](C)O)C(C)C)[C@@H](C)O` [M8] ({C20 diacid-γGlu}-ASQLSTAVTQRLADFLRHFTDRDRDILPPTNVGSNTP-NH2), for which, in series [1], the “Purity … 0 d” value worked out at 86.93; the “Purity … 7 d” value is reported as 86.57; the “Purity … 28 d” value was found to be 87.31; the “Change (7 d − 0 d)” value was −0.36. For the same molecule, the “Change (28 d − 0 d)” value in series [1] came out at 0.38. In addition, on human amylin receptors, the Relative activity was found to be 53% and a half-maximal response (EC50) required 0.049 nM.

Take `CC[C@H](C)[C@H](NC(=O)[C@@H]1CCCN1C(=O)[C@H](CCCCN)NC(=O)[C@H](CC(C)C)NC(=O)[C@H](CC(N)=O)NC(=O)[C@H](CC(N)=O)NC(=O)[C@H](CO)NC(=O)[C@H](CO)NC(=O)[C@H](Cc1c[nH]cn1)NC(=O)[C@H](CCCNC(=N)N)NC(=O)[C@H](CC(C)C)NC(=O)[C@H](Cc1ccccc1)NC(=O)[C@H](CC(=O)O)NC(=O)[C@H](C)NC(=O)[C@H](CC(C)C)NC(=O)[C@H](CCCNC(=N)N)NC(=O)[C@H](CCC(N)=O)NC(=O)[C@H](CC(C)C)NC(=O)[C@@H](NC(=O)[C@H](C)NC(=O)[C@@H](NC(=O)[C@H](CO)NC(=O)[C@H](CC(C)C)NC(=O)[C@H](CCC(N)=O)NC(=O)[C@H](CO)NC(=O)[C@H](C)NC(=O)CC[C@H](NC(=O)CCCCCCCCCCCCCCCCCCC(=O)O)C(=O)O)[C@@H](C)O)C(C)C)C(=O)N[C@@H](CC(C)C)C(=O)N1CCC[C@H]1C(=O)N1CCC[C@H]1C(=O)N[C@H](C(=O)N[C@@H](CC(N)=O)C(=O)N[C@H](C(=O)NCC(=O)N[C@@H](CO)C(=O)N[C@@H](CC(N)=O)C(=O)N[C@H](C(=O)N1C[C@H](O)C[C@H]1C(N)=O)[C@@H](C)O)C(C)C)[C@@H](C)O` [M9] ({C20 diacid-γGlu}-ASQLSTAVLQRLADFLRHSSNNLKPILPPTNVGSNT[Hyp]-NH2): in series [1], the “Purity … 0 d” value is given as 88.15; the “Purity … 7 d” value worked out at 89.62; the “Purity … 28 d” value is on record as 90.99; the “Change (7 d − 0 d)” value is given as 1.47. Also, in series [1], the “Change (28 d − 0 d)” value is recorded as 2.84. For the same molecule, on human amylin receptors, the Relative activity is 100% and the response was half-maximal at 0.026 nM (EC50).

B1: M27 (peptide)
peptide: {C20 diacid-βAsp}-ASQLSTAATQRLADFLRHSSNNLKPILPPTNVGSNT[Hyp]-NH2
SMILES: CC[C@H](C)[C@H](NC(=O)[C@@H]1CCCN1C(=O)[C@H](CCCCN)NC(=O)[C@H](CC(C)C)NC(=O)[C@H](CC(N)=O)NC(=O)[C@H](CC(N)=O)NC(=O)[C@H](CO)NC(=O)[C@H](CO)NC(=O)[C@H](Cc1c[nH]cn1)NC(=O)[C@H](CCCNC(=N)N)NC(=O)[C@H](CC(C)C)NC(=O)[C@H](Cc1ccccc1)NC(=O)[C@H](CC(=O)O)NC(=O)[C@H](C)NC(=O)[C@H](CC(C)C)NC(=O)[C@H](CCCNC(=N)N)NC(=O)[C@H](CCC(N)=O)NC(=O)[C@@H](NC(=O)[C@H](C)NC(=O)[C@H](C)NC(=O)[C@@H](NC(=O)[C@H](CO)NC(=O)[C@H](CC(C)C)NC(=O)[C@H](CCC(N)=O)NC(=O)[C@H](CO)NC(=O)[C@H](C)NC(=O)C[C@H](NC(=O)CCCCCCCCCCCCCCCCCCC(=O)O)C(=O)O)[C@@H](C)O)[C@@H](C)O)C(=O)N[C@@H](CC(C)C)C(=O)N1CCC[C@H]1C(=O)N1CCC[C@H]1C(=O)N[C@H](C(=O)N[C@@H](CC(N)=O)C(=O)N[C@H](C(=O)NCC(=O)N[C@@H](CO)C(=O)N[C@@H](CC(N)=O)C(=O)N[C@H](C(=O)N1C[C@H](O)C[C@H]1C(N)=O)[C@@H](C)O)C(C)C)[C@@H](C)O
Turning to B1, in series [2], the EC50 (luciferase assay, amylin receptor/CRE-luc CHO cells) stood at 0.064 nM and the Relative activity (the EC50 ratio of Cagrilintide to the compound) turned out to be 78%.

B2: M26 (peptide)
peptide: {C20 diacid}-EASQLSTAATQRLADFLRHSSNNLKPILPPTNVGSNT[Hyp]-NH2
SMILES: CC[C@H](C)[C@H](NC(=O)[C@@H]1CCCN1C(=O)[C@H](CCCCN)NC(=O)[C@H](CC(C)C)NC(=O)[C@H](CC(N)=O)NC(=O)[C@H](CC(N)=O)NC(=O)[C@H](CO)NC(=O)[C@H](CO)NC(=O)[C@H](Cc1c[nH]cn1)NC(=O)[C@H](CCCNC(=N)N)NC(=O)[C@H](CC(C)C)NC(=O)[C@H](Cc1ccccc1)NC(=O)[C@H](CC(=O)O)NC(=O)[C@H](C)NC(=O)[C@H](CC(C)C)NC(=O)[C@H](CCCNC(=N)N)NC(=O)[C@H](CCC(N)=O)NC(=O)[C@@H](NC(=O)[C@H](C)NC(=O)[C@H](C)NC(=O)[C@@H](NC(=O)[C@H](CO)NC(=O)[C@H](CC(C)C)NC(=O)[C@H](CCC(N)=O)NC(=O)[C@H](CO)NC(=O)[C@H](C)NC(=O)[C@H](CCC(=O)O)NC(=O)CCCCCCCCCCCCCCCCCCC(=O)O)[C@@H](C)O)[C@@H](C)O)C(=O)N[C@@H](CC(C)C)C(=O)N1CCC[C@H]1C(=O)N1CCC[C@H]1C(=O)N[C@H](C(=O)N[C@@H](CC(N)=O)C(=O)N[C@H](C(=O)NCC(=O)N[C@@H](CO)C(=O)N[C@@H](CC(N)=O)C(=O)N[C@H](C(=O)N1C[C@H](O)C[C@H]1C(N)=O)[C@@H](C)O)C(C)C)[C@@H](C)O
With B2, in series [2], the EC50 (luciferase assay, amylin receptor/CRE-luc CHO cells) amounted to 0.049 nM and the Relative activity (the EC50 ratio of Cagrilintide to the compound) is 103%.
